The subject of data set [1] is breakthrough migraine in patients treated with botulinum toxin (Botox). Particulars: human, in vivo.
For another data set, the system named is patients with migraine. Particulars: in vivo.
The test system of data set [2] is migraine attack of moderate or severe intensity in adults. Format: in vivo, human.
Data set [3] concerns breakthrough migraine in patient treated with fremanezumab. Particulars: human, in vivo.
Data set [4] deals with breakthrough migraine in patients treated with erenumab-aooe. Particulars: human, in vivo.

Consider three molecules from US20210338654A1 (priority 2019, published 2021).

“And” between values parts separate entries of the source, which are not always exact repeats. Identical values can stand only once.

Turning to `CN(C)CCc1c[nH]c2ccc(C[C@H]3COC(=O)N3)cc12` [Zomig®, reference compound], the “effect on migraines (patient history)” value in data set [1] is on record as “would decrease in intensity but they would not attain freedom from pain within 24 hrs”.

As to `N[C@@H]1c2cccnc2[C@H](OC(=O)N2CCC(n3c(=O)[nH]c4ncccc43)CC2)CC[C@H]1c1cccc(F)c1F` [Rimegepant, [(5S,6S,9R)-5-amino-6-(2,3-difluorophenyl)-6,7,8,9-tetrahydro-5H-cyclohepta[b]pyridin-9-yl] 4-(2-oxo-3H-imidazo[4,5-b]pyridin-1-yl)piperidine-1-carboxylate], the “incidence of serum ALT or AST >3×ULN” value with patients with migraine (human) worked out at 1.0%. In the data set on patients with migraine, the “Hy's Law cases” value is on record as “no Hy's Law cases identified”, the “liver cases assessed as probably related to study drug” value was “no liver cases assessed as probably related to study drug”, the liver safety signal entry was “no liver safety signal detected to date” and the “mean reduction in headaches/month” value came out at 4 days. Besides, the “patients with at least 30% reduction in monthly number of headache days” value with patients with migraine was “Approximately 40%”. The “N. Censored (no pain score of none by 495 minutes postdose, censored at 496 minutes)” value in data set [2] (N = 537) is given as 139. Besides, in data set [2] (in vivo), the “Freedom from most bothersome symptom at two hours postdose, Common Risk” value is 41.2%; the “Freedom from most bothersome symptom at two hours postdose, Free from MBS n/N” value is 31/89 and 171/448 and 202/537; the “Freedom from most bothersome symptom at two hours postdose, Stratum Risk” value was 40.3% and 41.4%; the “Pain freedom at two hours postdose, Common Risk” value turned out to be 20.2%. Moreover, in data set [2] (in vivo), the “Pain freedom at two hours postdose, No Pain n/N” value was 14/89 and 91/448 and 105/537; the “Pain freedom at two hours postdose, Risk Difference Rimegepant vs Placebo” value was 7.82 and 7.36 and 7.91; the “Pain freedom at two hours postdose, Stratum Risk” value was 16.7% and 20.9%. Also, in data set [3], the “migraine breakthroughs successfully treated” value is “three migraine breakthroughs that were successfully treated”. In addition, in data set [4], the “Preference of Medication response” value is “Much better, I prefer this medication”; the “Satisfaction with Medication (SM) response” value is reported as “Very satisfied”; the “acute treatment of breakthrough migraine, outcome” value is recorded as “effective”; the adverse events result is “no adverse events”. Besides, in data set [4], the “adverse events related to treatment” value was “no adverse events related to treatment”; the “adverse events while receiving rimegepant alone (streptococcal pharyngitis, considered unrelated)” value stood at 1; the “rating versus previous treatments” value is reported as “much better”; the “relief from breakthrough migraine headache” value is given as “obtained relief from the migraine headache without the need to take other medications”. In addition, the “satisfaction with rimegepant at end-of-study visit” value in data set [4] is “very satisfied”. Also, in data set [1], the “adverse effects from treatment” value is given as “did not report any adverse effects”, the “need for rescue medication” value is listed as “did not require any rescue medications or additional doses of rimegepant”, the “number of headache days (parent report)” value is “noticeable reduction in the number of headache days” and the “relief from breakthrough migraine headache” value is “obtained relief from the migraine headache without the need to take other medications”. Moreover, in data set [1], the “resolution of Botox induced headache” value is recorded as “completely resolved within an hour”, the “time to full resolution of headache” value was at most 1 h and the “time to pain relief” value is reported as “within a half an hour”.

B1: erenumab (antibody, chains of the INN, looked up, V domains shown)
VH: QVQLVESGGGVVQPGRSLRLSCAASGFTFSSFGMHWVRQAPGKGLEWVAVISFDGSIKYSVDSVKGRFTISRDNSKNTLFLQMNSLRAEDTAVYYCARDRLNYYDSSGYYHYKYYGMAVWGQGTTVTVSS
VL: QSVLTQPPSVSAAPGQKVTISCSGSSSNIGNNYVSWYQQLPGTAPKLLIYDNNKRPSGIPDRFSGSKSGTSTTLGITGLQTGDEADYYCGTWDSRLSAVVFGGGTKLTVL
As for B1, in data set [4], the “decline in monthly migraine days (MMDs)” value amounted to 46% and the “monthly migraine days of any pain intensity after starting erenumab” value was found to be 7 MMDs.
